Test results reported in patent US7469185B2, “Primary rat hepatocyte toxicity modeling” (Ocimum Biosolutions, Inc., priority 2002, dated 2008).

Key:
dogs = settings: dog, in vivo; cited from earlier work
primary rat hepatocytes = assay: Microarray gene expression analysis (Affymetrix rat array) of toxin-exposed hepatocytes, with linear discriminant score; type: cell-based; settings: 24 hrs
Method: Identification of toxicity markers was performed by microarray analysis and by the AlamarBlue® assay, a classical measure of cytotoxicity. The AlamarBlue® assay was performed in triplicate.
The source of the primary rat hepatocytes was Sprague Dawley Outbred CDs Rats (CRL:CD®[SD] IGS BR, Charles River Laboratories). […] Primary rat hepatocytes were received the day after the cells were removed from the animals. After arrival, the cells, the cells were incubated overnight (˜15 hrs) before the toxin was added to the cultures. […] Toxin or vehicle was administered to hepatocyte cultures as follows. For each treatment, i.e., vehicle alone, vehicle+toxin at low dose, or vehicle+toxin at high dose, cells were harvested after 3, 6 and 24-hour incubations with the toxin solution or with the vehicle.
More than 10^7 cells are typically prepared for each sample. RNA was collected at 3, 6 and 24 hours following addition of the toxin according to the following procedure.
Each flask contained ˜10-20 million cells. The contents of each flask were mixed vigorously for one minute with a vortex mixer and then aspirated up and down 5 times with a pipette. The contents of each flask (˜12 ml each) was collected into a 50 ml conical polypropylene tissue culture tube (Falcon), snap frozen in liquid nitrogen and stored at ≦−86° C.
Microarray sample preparation was conducted with minor modifications, following the protocols set forth in the Affymetrix GeneChip® Expression Analysis Manual. Frozen cells were ground to a powder using a Spex Certiprep 6800 Freezer Mill. Total RNA was extracted with Trizol (GibcoBRL) utilizing the manufacturer's protocol. […] Double stranded cDNA was generated from mRNA using the SuperScript Choice system (GibcoBRL). First strand cDNA synthesis was primed with a T7-(dT24) oligonucleotide. The cDNA was phenol-chloroform extracted and ethanol precipitated to a final concentration of […]. From 2 μg of cDNA, cRNA was synthesized using Ambion's T7 MegaScript in vitro Transcription Kit.
To biotin label the cRNA, nucleotides Bio-11-CTP and Bio-16-UTP (Enzo Diagnostics) were added to the reaction. Following a 37° C. incubation for six hours, impurities were removed from the labeled cRNA following the RNeasy Mini kit protocol (Qiagen). cRNA was fragmented (fragmentation buffer consisting of 200 mM Tris-acetate, pH 8.1, 500 mM KOAc, 150 mM MgOAc) for thirty-five minutes at 94° C. Following the Affymetrix protocol, 55 μg of fragmented cRNA was hybridized on the Affymetrix rat array set for twenty-four hours at 60 rpm in a 45° C. hybridization oven. The chips were washed and stained with Streptavidin Phycoerythrin (SAPE) (Molecular Probes) in Affymetrix fluidics stations. To amplify staining, SAPE solution was added twice with an anti-streptavidin biotinylated antibody (Vector Laboratories) staining step in between. Hybridization to the probe arrays was detected by fluorometric scanning (Hewlett Packard Gene Array Scanner). Data was analyzed using Affymetrix GeneChip® version 3.0 and Expression Data Mining Tool (EDMT) software (version 1.0), S-Plus, and the GeneExpress® software system.
Each gene is identified by its Gene Logic identification number and can be cross-referenced to a gene name and representative SEQ ID NO. in Table 1.

Cl.Nc1nc2c(Cc3ccsc3)c[nH]c2c(=O)[nH]1.O [CI-1000, 4H-pyrrolo:3,2-d:pyrimidin-4-one, 2-amino-3,5-dihydro-7-(3-thienylmethyl)-monohydrochloride monohydrate]
serum ALT levels (dogs): increased | Mean Tox (primary rat hepatocytes; GLGC ID NO. 108): 773.3800 | Mean Tox (primary rat hepatocytes; GLGC ID NO. 573): 8.6367 | Mean Tox (primary rat hepatocytes; GLGC ID NO. 574): 4432.0900 | Mean Tox (primary rat hepatocytes; GLGC ID NO. 798): 128.0433 | Mean Tox (primary rat hepatocytes; GLGC ID NO. 1348): 71.9967 | Mean Tox (primary rat hepatocytes; GLGC ID NO. 1378): 98.1567 | Mean Tox (primary rat hepatocytes; GLGC ID NO. 1570): 1078.9433 | Mean Tox (primary rat hepatocytes; GLGC ID NO. 1571): 1228.2500 | Mean Tox (primary rat hepatocytes; GLGC ID NO. 1728): 390.6900 | Mean Tox (primary rat hepatocytes; GLGC ID NO. 1798): 347.1167 | Mean Tox (primary rat hepatocytes; GLGC ID NO. 2250): 3776.5600 | Mean Tox (primary rat hepatocytes; GLGC ID NO. 2267): 415.0967 | Mean Tox (primary rat hepatocytes; GLGC ID NO. 2382): 33.0133 | Mean Tox (primary rat hepatocytes; GLGC ID NO. 2909): 422.4233 | Mean Tox (primary rat hepatocytes; GLGC ID NO. 2911): 39.1667 | Mean Tox (primary rat hepatocytes; GLGC ID NO. 2933): 16.1500 | Mean Tox (primary rat hepatocytes; GLGC ID NO. 3246): 236.8700 | Mean Tox (primary rat hepatocytes; GLGC ID NO. 3501): 61.2333 | Mean Tox (primary rat hepatocytes; GLGC ID NO. 3631): 235.6533 | Mean Tox (primary rat hepatocytes; GLGC ID NO. 4636): 424.3433 | Mean Tox (primary rat hepatocytes; GLGC ID NO. 4650): 398.0633 | Mean Tox (primary rat hepatocytes; GLGC ID NO. 5044): 161.4467 | Mean Tox (primary rat hepatocytes; GLGC ID NO. 5258): 68.1000 | Mean Tox (primary rat hepatocytes; GLGC ID NO. 5496): 49.0667 | Mean Tox (primary rat hepatocytes; GLGC ID NO. 5615): 127.1533 | Mean Tox (primary rat hepatocytes; GLGC ID NO. 5899): 33.5000 | Mean Tox (primary rat hepatocytes; GLGC ID NO. 6033): 72.8967 | Mean Tox (primary rat hepatocytes; GLGC ID NO. 6224): 150.6700 | Mean Tox (primary rat hepatocytes; GLGC ID NO. 6291): 87.3167 | Mean Tox (primary rat hepatocytes; GLGC ID NO. 6343): 51.9167 | Mean Tox (primary rat hepatocytes; GLGC ID NO. 6717): 59.7300 | Mean Tox (primary rat hepatocytes; GLGC ID NO. 6996): 165.6633 | Mean Tox (primary rat hepatocytes; GLGC ID NO. 7926): 49.1133 | Mean Tox (primary rat hepatocytes; GLGC ID NO. 8395): 10.1200 | Mean Tox (primary rat hepatocytes; GLGC ID NO. 9309): 142.4767 | Mean Tox (primary rat hepatocytes; GLGC ID NO. 9500): 66.0900 | Mean Tox (primary rat hepatocytes; GLGC ID NO. 9845): 126.4867 | Mean Tox (primary rat hepatocytes; GLGC ID NO. 10138): 43.7667 | Mean Tox (primary rat hepatocytes; GLGC ID NO. 10544): 702.1267 | Mean Tox (primary rat hepatocytes; GLGC ID NO. 10920): −1.0367 | Mean Tox (primary rat hepatocytes; GLGC ID NO. 10986): 12.0067 | Mean Tox (primary rat hepatocytes; GLGC ID NO. 11610): 570.7167 | Mean Tox (primary rat hepatocytes; GLGC ID NO. 12563): 634.3933 | Mean Tox (primary rat hepatocytes; GLGC ID NO. 12580): 37.5533 | Mean Tox (primary rat hepatocytes; GLGC ID NO. 13169): 173.3367 | Mean Tox (primary rat hepatocytes; GLGC ID NO. 13283): 44.9933 | Mean Tox (primary rat hepatocytes; GLGC ID NO. 13346): 474.6867 | Mean Tox (primary rat hepatocytes; GLGC ID NO. 13563): 194.5233 | Mean Tox (primary rat hepatocytes; GLGC ID NO. 13614): 51.4367 | Mean Tox (primary rat hepatocytes; GLGC ID NO. 13919): 64.7367 | Mean Tox (primary rat hepatocytes; GLGC ID NO. 14521): 198.1933 | Mean Tox (primary rat hepatocytes; GLGC ID NO. 14934): 171.4667 | Mean Tox (primary rat hepatocytes; GLGC ID NO. 15087): 279.6733 | Mean Tox (primary rat hepatocytes; GLGC ID NO. 15205): 136.0033 | Mean Tox (primary rat hepatocytes; GLGC ID NO. 15403): 546.1933 | Mean Tox (primary rat hepatocytes; GLGC ID NO. 15663): 575.4367 | Mean Tox (primary rat hepatocytes; GLGC ID NO. 15685): 1989.9867 | Mean Tox (primary rat hepatocytes; GLGC ID NO. 15925): 154.8867 | Mean Tox (primary rat hepatocytes; GLGC ID NO. 16006): 341.7733 | Mean Tox (primary rat hepatocytes; GLGC ID NO. 16024): 520.0167 | Mean Tox (primary rat hepatocytes; GLGC ID NO. 16025): 313.1433 | Mean Tox (primary rat hepatocytes; GLGC ID NO. 16164): 1717.2267 | Mean Tox (primary rat hepatocytes; GLGC ID NO. 16947): 147.5900 | Mean Tox (primary rat hepatocytes; GLGC ID NO. 17115): −3.3700 | Mean Tox (primary rat hepatocytes; GLGC ID NO. 17365): 113.6667 | Mean Tox (primary rat hepatocytes; GLGC ID NO. 17549): 1296.6000 | Mean Tox (primary rat hepatocytes; GLGC ID NO. 17956): 167.2833 | Mean Tox (primary rat hepatocytes; GLGC ID NO. 18278): 30.2633 | Mean Tox (primary rat hepatocytes; GLGC ID NO. 18383): 210.0600 | Mean Tox (primary rat hepatocytes; GLGC ID NO. 18498): 412.3833 | Mean Tox (primary rat hepatocytes; GLGC ID NO. 18524): 233.6633 | Mean Tox (primary rat hepatocytes; GLGC ID NO. 18727): 1450.8800 | Mean Tox (primary rat hepatocytes; GLGC ID NO. 18777): 195.2400 | Mean Tox (primary rat hepatocytes; GLGC ID NO. 19371): 24.8700 | Mean Tox (primary rat hepatocytes; GLGC ID NO. 20586): 44.1067 | Mean Tox (primary rat hepatocytes; GLGC ID NO. 20664): 373.3533 | Mean Tox (primary rat hepatocytes; GLGC ID NO. 20701): 78.4500 | Mean Tox (primary rat hepatocytes; GLGC ID NO. 20755): 2569.4500 | Mean Tox (primary rat hepatocytes; GLGC ID NO. 20801): 441.4867 | Mean Tox (primary rat hepatocytes; GLGC ID NO. 20939): 971.5300 | Mean Tox (primary rat hepatocytes; GLGC ID NO. 21064): 291.1633 | Mean Tox (primary rat hepatocytes; GLGC ID NO. 21154): 116.8600 | Mean Tox (primary rat hepatocytes; GLGC ID NO. 21747): 330.9267 | Mean Tox (primary rat hepatocytes; GLGC ID NO. 21794): 5.9200 | Mean Tox (primary rat hepatocytes; GLGC ID NO. 22102): 633.5467 | Mean Tox (primary rat hepatocytes; GLGC ID NO. 22310): 316.3067 | Mean Tox (primary rat hepatocytes; GLGC ID NO. 22576): 484.4533 | Mean Tox (primary rat hepatocytes; GLGC ID NO. 22915): 409.8567 | Mean Tox (primary rat hepatocytes; GLGC ID NO. 22994): 83.8300 | Mean Tox (primary rat hepatocytes; GLGC ID NO. 23166): 758.8567 | Mean Tox (primary rat hepatocytes; GLGC ID NO. 23250): 317.7900 | Mean Tox (primary rat hepatocytes; GLGC ID NO. 23521): 60.4533 | Mean Tox (primary rat hepatocytes; GLGC ID NO. 23630): 789.8200 | Mean Tox (primary rat hepatocytes; GLGC ID NO. 23738): 290.9200 | Mean Tox (primary rat hepatocytes; GLGC ID NO. 23860): 310.3067 | Mean Tox (primary rat hepatocytes; GLGC ID NO. 24501): 2075.2267 | Mean Tox (primary rat hepatocytes; GLGC ID NO. 24554): 25.3833 | Mean Tox (primary rat hepatocytes; GLGC ID NO. 24814): 389.9067 | Mean Tox (primary rat hepatocytes; GLGC ID NO. 25594): 700.5833 | Mean Tox (primary rat hepatocytes; GLGC ID NO. 26184): 126.0933
